Converted amounts (≈) assume the structure as drawn. Where two headings read alike, the source gives them in different places.
How the values were obtained:
[1] = system: ascitic P388 leukemia; assay: Antitumor activity against ascitic P388 leukemia in CDF-1 mice, treatment i.p. on day 1; type: in vivo
Method: (§1) The primary screening […] was carried out in CDF-1 mice bearing ascitic P388 leukemia (10^6 cells/mouse). Both IIa and IIc were suspended in 10%. Tween 80 and injected intraperitoneally.
(§2) Results of the primary screening "in vivo" carried out in CDF-1 mice bearing P388 ascitic leukemia and treated i.p. the day after tumor transplantation, are reported in Table 5.
(§3) Antitumor activity against ascitic P388 leukekemia.
(§4) Treatment i.p. on day 1.
(§5) ^a median survival time; % over untreated controls
(§6) ^b long term survivors (≥ 60 days)
(§7) ^c evaluated on the basis of autoptic findings on dead mice
(§8) ^d data of two experiments (range)
(§9) ^e date of three experiments (range)
(§10) Antitumor activity of Ib and Id against ascitic P388
as §4

[2] = system: HeLa cells; assay: Colony inhibition test against HeLa cells in vitro (cloning efficiency), treatment for 24 hrs; type: cell-based; conditions: for activity at 0.0062 µg/mL: 6.2 ng/ml; for activity at 0.025 µg/mL: 25 ng/ml; for IC50: HeLa colony inhibition, read-out: ID50 (the source's name); for times less cytotoxic than DNR: vs DNR; for activity at 0.0015 µg/mL: 1.5 ng/ml; for activity at 0.1 µg/mL: 100 ng/ml
[3] = system: Gross leukemia; conditions: already demonstrated; cited from earlier work
[4] = system: Gross leukemia; assay: Oral activity against i.v. transplanted Gross leukemia (i.v. comparators); type: in vivo, C3H/Me mice; conditions: for T/C %, median survival time / Toxic deaths: Table 7, oral +1
Excerpt: (§11) Results of studies performed in C3H/Me mice carrying i.v. transplanted Gross leukemia and treated i.v. the day after tumor transplantation, are reported in Table 6. […] The compounds Ib and Id were further investigated for oral activity on Gross leukemic transplanted i.v., in comparison with DNR, DX given i.v. and 4-dm DNR given oral route.
Oral activity of Ib and Id against Gross leukemia
^a days after transplantation
as §8

[5] = Antitumor activity against ascitic P388 leukemia in CDF-1 mice, treatment i.p. on day 1; type: in vivo; conditions: mouse, in vivo, ip, CDF-1 mice; read-out: Maximal Tolerated Dose (Mx TD)
Method: as §1, §2, §3, §4, §5, §6, §7, §8, §9, §10, §4

[6] = system: P388 leukemia cells resistant to DX (P388/DX); assay: Cytotoxicity on doxorubicin-resistant P388/DX leukemia cells in vitro, 48 hrs exposure; type: cell-based, mice
Method: Compounds Ib and Id were studied "in vitro" on HeLa and P388 leukemia cells sensitive (P388) and resistant (P388/DX) to DX and […].
Compound Ib was studied on P388/DX "in vitro".
P388 and P388/DX leukemia cells were harvested from mice ascitic fluid and adapted to grow in suspension "in vitro". Cytotoxicity tests were carried out exposing the cells to various drug concentrations for 48 hrs; at the end of the exposure period, cells were counted with a coulter cell counter, and the ID50 (dose which gives 50% reduction of the cell number in comparison with untreated controls) was calculated.
Effect on sensitive and doxorubicin-resistant P388
^a Dose giving 50% reduction of cell number in comparison with
^c P388 leukemia cells resistant to DX
^d Ratio between ID50 on P388/DX and ID50 on P388

[7] = system: Gross leukemia; assay: Antitumor activity against i.v. transplanted Gross leukemia in C3H/Me mice, treatment i.v. on day 1; type: in vivo; conditions: for T/C, median survival time; % over untreated controls / Toxic deaths: Table 6
Excerpt: as §11
Antitumor activity against i.v. Gross leukemia.
Treatment i.v. on day 1.

[8] = system: P388 leukemia cells sensitive to DX; assay: Cytotoxicity on doxorubicin-sensitive P388 leukemia cells in vitro, 48 hrs exposure; type: cell-based, mice
Excerpt: P388 and P388/DX leukemia cells were harvested from mice ascitic fluid and adapted to grow in suspension "in vitro".

[9] = Homo sapiens, HeLa, 24 h, Table 3, 24 hrs, read-out: No of colonies, % of untreated controls
[10] = Homo sapiens, HeLa, Table 1, 24 hrs, read-out: No of colonies, % of untreated controls
[11] = Homo sapiens, HeLa, Table 3, 24 hrs, read-out: No of colonies, % of untreated controls

## CC(=O)[C@]1(O)Cc2c(O)c3c(c(O)c2[C@@H](O[C@H]2C[C@H](N)[C@H](O)[C@H](C)O2)C1)C(=O)c1ccccc1C3=O [4-dm DNR, 4-demethoxy DNR, reference compound]
[1]; Table 5, 0.75 mg/kg i.p. day 1
  LTS, long term survivors (≥ 60 days): 0/8
  T/C, median survival time; % over untreated controls: 163%
  Toxic deaths (autoptic findings on dead mice): 0/8
[2]; Homo sapiens, HeLa, 24 h, Table 3, 3.1 ng/ml, 24 hrs, read-out: No of colonies, % of untreated controls
  activity at 0.0031 µg/mL: 84%
[2]; [9]
  activity at 0.0062 µg/mL: 53%
  activity at 0.025 µg/mL: 0%
[2]; Homo sapiens, HeLa, 24 h, Table 3, 12.5 ng/ml, 24 hrs, read-out: No of colonies, % of untreated controls
  activity at 0.0125 µg/mL: 18%
[2]; Homo sapiens, HeLa, 24 h, Table 3, 24 hrs
  IC50: ~0.0063 µg/mL (≈ 0.0127 µM)
[3]
  activity by oral route: active by oral route
[4]; 3 mg/kg
  T/C %, median survival time: 150%
  Toxic deaths: 0/6
[4]; 3.6 mg/kg
  T/C %, median survival time: 150%
  Toxic deaths: 0/6
[4]; 4.3 mg/kg
  T/C %, median survival time: 216%
  Toxic deaths: 0/3

## COc1cccc2c1C(=O)c1c(O)c3c(c(O)c1C2=O)C[C@@](O)(C(C)=O)C[C@@H]3O[C@H]1C=C[C@@H](O)[C@H](C)O1 [Compound IIa, 7-0-(2,3,6-trideoxy-α-L-erythro-hex-2-enopyranosyl)-daunomycinone]
[5]
  MTD: 100 mg/kg
[1]; Table 2, 75 mg/kg i.p. day 1
  LTS, long term survivors (≥ 60 days): 0/5
  T/C, median survival time; % over untreated controls: 120%
  Toxic deaths (autoptic findings on dead mice): 0/5
[1]; Table 2, 100 mg/kg i.p. day 1
  LTS, long term survivors (≥ 60 days): 0/10
  T/C, median survival time; % over untreated controls: 90%
  Toxic deaths (autoptic findings on dead mice): 1/10
[1]; ascitic P388, i.p.
  toxicity and potency vs parent drugs DNR and DX: less toxic and potent than the parent drugs DNR and DX
[1]; i.p. day 1, IIa: two doses tested incl. Mx TD
  antitumor activity on P388 ascitic leukemia: inactive
[2]; HeLa cells cloning efficiency
  times less cytotoxic than DNR: about 25 times
[2]; [10]
  activity at 0.0015 µg/mL: 120%
  activity at 0.0062 µg/mL: 127%
  activity at 0.025 µg/mL: 143%
  activity at 0.1 µg/mL: 136%
[2]; Homo sapiens, HeLa, Table 1, 400 ng/ml, 24 hrs, read-out: No of colonies, % of untreated controls
  activity at 0.4 µg/mL: 146%
[2]; Homo sapiens, Table 1, 24 hrs
  IC50: 0.4 µg/mL (≈ 0.784 µM)

## CC(=O)[C@]1(O)Cc2c(O)c3c(c(O)c2[C@@H](O[C@H]2C[C@H](O)[C@@H](O)[C@H](C)O2)C1)C(=O)c1ccccc1C3=O [Compound Ib, 4-demethoxy-7-0-(2,6-dideoxy-α-L-arabino-hexopyranosyl)-daunomycinone]
[1]; Table 5, 1.25 mg/kg i.p. day 1
  LTS, long term survivors (≥ 60 days): 0/8
  T/C, median survival time; % over untreated controls: 140%
  Toxic deaths (autoptic findings on dead mice): 0/8
[1]; Table 5, 2.5 mg/kg i.p. day 1
  LTS, long term survivors (≥ 60 days): 0/9
  T/C, median survival time; % over untreated controls: 163%
  Toxic deaths (autoptic findings on dead mice): 3/9
[1]; Table 5, 5 mg/kg i.p. day 1
  LTS, long term survivors (≥ 60 days): 0/10
  T/C, median survival time; % over untreated controls: 63%
  Toxic deaths (autoptic findings on dead mice): 10/10
[1]; ascitic P388, i.p. day 1
  times less potent than 4-dm DNR: about 1.5 times
  times more potent than DNR: 2 times
[1]; vs DNR and 4-dm DNR
  antileukemia activity, comparison at the Mx TD: less active than DNR and 4-dm DNR
[2]; HeLa cells cloning efficiency, vs 4-dm DNR
  times less cytotoxic than 4-dm DNR: 6 times
[2]; HeLa cells cloning efficiency
  times less cytotoxic than DNR: 3 times
[2]; [11]
  activity at 0.0015 µg/mL: 107%
  activity at 0.0062 µg/mL: 87%
  activity at 0.025 µg/mL: 67%
  activity at 0.1 µg/mL: 0%
[2]; Homo sapiens, Table 3, 24 hrs
  IC50: ~0.035 µg/mL (≈ 0.0702 µM)
[6]; 48 hrs
  activity on P388/DX leukemia cells: very active
[6]; Mus musculus, P388/DX, dose giving 50% reduction of cell number vs untreated controls, 48 hrs, read-out: ID50 P388/DX
  IC50: 0.03 µg/mL (≈ 0.0602 µM)
[6]; Table 4, 2880 min
  R: Ratio between ID50 on P388/DX and ID50 on P388: 25
[7]; Gross leukemia, i.v. day 1
  antitumor activity, comparison of the Mx TD: more active than DNR
  toxicity and potency vs parent compounds: more toxic and more potent than the parent compounds
[7]; 2.9 mg/kg i.v. day 1
  T/C, median survival time; % over untreated controls: 214%
  Toxic deaths: 0/7
[7]; 4.4 mg/kg i.v. day 1
  T/C, median survival time; % over untreated controls: 100%
  Toxic deaths: 7/8
[4]; 2.9 mg/kg
  T/C %, median survival time: 167%
  Toxic deaths: 0/10
[4]; 4.4 mg/kg
  T/C %, median survival time: 208%
  Toxic deaths: 0/10
[4]; 6.6 mg/kg
  T/C %, median survival time: 116%
  Toxic deaths: 4/9
[4]; oral day 1, Gross leukemia, Id at the Mx TD vs DX i.v.
  antitumor activity given orally at day 1: good antitumor activity when given orally at day 1, comparable to that of 4-dm DNR
[8]; Mus musculus, P388, dose giving 50% reduction of cell number vs untreated controls, 48 hrs, read-out: ID50 P388
  IC50: 0.0012 µg/mL (≈ 0.00241 µM)
[8]; vs DNR
  cytotoxicity on P388 leukemia cells: about as cytotoxic as DNR

— US4522815A, “Anthracycline glycosides” (priority 1982, dated 1985)
